Laboratory results published in article PMC5613062 (Investigational New Drugs, 2017).
“Also recorded” adds a separate entry of the source. Where two headings read alike, the source gives them in different places.

Legend:
[1] = system: Calu-6 human non-small cell lung cancer xenograft; design: method as in earlier work; settings: AZD6244 3 mg/kg BD; AZD2171 […] QD; ref IB; cited from earlier work
[2] = system: p-glycoprotein (PgP); design: method as in earlier work; settings: ref IB; cited from earlier work
[3] = system: SW620 human colorectal cancer xenograft; design: method as in earlier work; settings: ref IB, cited from earlier work
[4] = system: breast cancer resistance protein (BCRP); design: method as in earlier work; settings: ref IB; cited from earlier work
[5] = design: method as in earlier work; settings: mouse, rat and monkey; dosed as free-base or Hyd-Sulfate; ref IB; cited from earlier work
[6] = system: expressed CYP isoforms; design: method as in earlier work; settings: ref IB; listed as AZD6244; cited from earlier work
[7] = design: method as in earlier work; settings: monkey; ref IB; cited from earlier work
[8] = design: method as in earlier work; settings: mouse; ref IB; cited from earlier work
[9] = design: method as in earlier work; settings: human; ref IB; cited from earlier work
[10] = design: method as in earlier work; settings: either formulation of AZD6244; ref IB; cited from earlier work
[11] = system: CYP2C9; design: method as in earlier work; settings: weak direct inhibitor; ref IB; cited from earlier work
[12] = design: method as in earlier work; settings: AZD6244-related material, rat and mouse; ref IB; cited from earlier work
[13] = system: CYP 2C19; design: method as in earlier work; settings: at concentrations up to 50uM; ref IB; cited from earlier work
[14] = design: method as in earlier work; settings: rat; ref IB; cited from earlier work
[15] = system: 3T3; design: method as in earlier work; settings: 3T3 Neutral Red Uptake phototoxicity test; ref IB; cited from earlier work
[16] = system: CYP 3A4; design: method as in earlier work; settings: at concentrations up to 50uM; ref IB; cited from earlier work
[17] = Pharmacokinetics alone and in combination, selumetinib + temsirolimus arm; format: in vivo, human; settings: human, plasma, iv, geometric mean (% CV); for AUC(0-t): read-out: AUC(0–8); for AUC(0–12): read-out: AUC(0–12); for Cmax: read-out: Cmax
Procedure: PK parameters were derived using non-compartmental analysis. Cmax and tmax were determined by visual inspection of the plasma concentration-time profiles. AUC(0–12) was calculated by the linear trapezoidal rule. Where more than one maximum occurred, the reported value was assigned to the first occurrence.

[18] = design: method as in earlier work; settings: predominantly via an aneugenic mode of action; ref IB; cited from earlier work
[19] = system: cytochrome P450 (CYP)3A, 1A and 2C; design: method as in earlier work; settings: human hepatocytes, preliminary in vitro data; ref IB; cited from earlier work
[20] = design: method as in earlier work; settings: dog; ref IB; cited from earlier work
[21] = system: CYP 2C8; design: method as in earlier work; settings: at concentrations up to 50uM; ref IB; cited from earlier work
[22] = system: panel of other kinases; design: method as in earlier work; settings: ref IB; cited from earlier work
[23] = design: method as in earlier work; settings: mice, at dose levels that do not induce maternal toxicity, preliminary; ref IB; cited from earlier work
[24] = ref Study ARRY-0401, cited from earlier work
[25] = system: CYP1A2; design: method as in earlier work; settings: at concentrations up to 50uM; ref IB; cited from earlier work
[26] = cited from earlier work
[27] = design: method as in earlier work; settings: ref IB; cited from earlier work
[28] = system: Lovo colorectal cancer xenograft; design: method as in earlier work; settings: ref IB, cited from earlier work
[29] = system: CYP 2D6; design: method as in earlier work; settings: at concentrations up to 50uM; ref IB; cited from earlier work
[30] = system: HCT-116 human colorectal cancer xenograft; design: method as in earlier work; settings: AZD6244 25 m/kg BD; docetaxel 15 mg/kg once weekly; ref IB; cited from earlier work
[31] = dosed alone, selumetinib 50 mg cohort (N = 25), temsirolimus 25 mg IV
[32] = dosed alone, selumetinib 75 mg cohort (N = 6), temsirolimus 25 mg IV
[33] = dosed in combination, selumetinib 50 mg BID (N = 22) + temsirolimus 25 mg IV
[34] = dosed in combination, selumetinib 75 mg BID (N = 5) + temsirolimus 25 mg IV

## Cn1cnc2c(F)c(Nc3ccc(Br)cc3Cl)c(C(=O)NOCCO)cc21 [Selumetinib]
[1]
  Tumor growth inhibition as a % of control: 48.8 % of control
[2]
  interaction with p-glycoprotein (PgP): substrate but not an inhibitor
[3]; AZD6244 25 mg/kg BD, irinotecan 25 mg/kg once weekly, docetaxel 15 mg/kg once weekly
  Tumor growth inhibition as a % of control: 74 % of control
[3]; temozolamide experiment, usual monotherapy schedules, doses not given
  Tumor growth inhibition as a % of control: 58 % of control
[4]
  interaction with breast cancer resistance protein (BCRP): substrate but not an inhibitor
[5]
  accumulation on multiple dosing: no/minimal accumulation
[6]
  CYP isoforms metabolizing AZD6244: metabolized by CYP1A2; also recorded: also metabolized by CYP 2C19 and CYP 3A4
[7]
  Protein binding: 97.7%
[8]
  Protein binding: 98.9%
[9]
  Protein binding: 98.4%
[10]
  QTc prolongation: no signal for QTc prolongation
[11]
  IC50: 44.7 µM
[12]
  binding to melanin: no evidence of binding to melanin
  penetration into the CNS: minimal
[13]
  inhibition of CYP2C19: no inhibition
[14]
  Protein binding: 99.7%
[15]
  cytotoxicity in the presence of UV light: enhanced
[16]
  inhibition of CYP3A4: no inhibition
[17]; [31]
  AUC(0-t): 1840 ng·h/mL
  AUC(0–12): 2150 ng·h/mL
  Cmax: 666 ng/mL
[17]; [32]
  AUC(0-t): 2990 ng·h/mL
  AUC(0–12): 3370 ng·h/mL
  Cmax: 1240 ng/mL
[17]; [33]
  AUC(0-t): 1840 ng·h/mL
  AUC(0–12): 2130 ng·h/mL
  Cmax: 676 ng/mL
[17]; [34]
  AUC(0-t): 2520 ng·h/mL
  AUC(0–12): 2940 ng·h/mL
  Cmax: 887 ng/mL
[18]
  mouse micronucleus result: increase in micronucleated immature erythrocytes (MIE)
[19]
  induction of cytochrome P450 (CYP)3A, 1A and 2C: weak inducer
[20]
  Protein binding: 94.6%
[21]
  inhibition of CYP2C8: no inhibition
[22]
  activity against a panel of other kinases: inactive, or only minimally active
[23]
  reproductive toxicology: adverse effects on embryofetal development and survival
[24]; post-dose
  time at which Cmax attained (median): approximately 1 hour
[24]; terminal elimination phase
  half-life (t½), median: approximately 11 hours
[25]
  inhibition of CYP1A2: no inhibition
[26]; first-in-human trial of selumetinib monotherapy
  maximum tolerated dose (MTD), monotherapy: 75 mg BID
[26]; in vivo
  recommended phase II monotherapy dose: 75 mg BID
[27]
  mutagenic or clastogenic potential in vitro: no evidence of mutagenic or clastogenic potential
[28]; AZD6244 25 mg/kg BD, Iressa 75 mg/kg QD
  Tumor growth inhibition as a % of control: 40.2 % of control
[28]; rapamycin experiment, usual monotherapy schedules, doses not given
  Tumor growth inhibition as a % of control: 39 % of control
[29]
  inhibition of CYP2D6: no inhibition
[30]
  Tumor growth inhibition as a % of control: 64.9 % of control
